From patent US5629289A, “Cyclic peptide antifungal agents” (Eli Lilly and Company, priority 1995, dated 1997)
In brackets after ≈: the same amount, converted by molar mass. *1 amine or outer side, *2 acyl side, *3 side chain or, on linkers, in order; H or OH if unused. Where a SMILES comes first, the peptide text is derived from it. Bridges are numbered along the chain shown (N, C = ends). [ ]: non-standard residue; d: D form. The star is where a group is joined. ξ: configuration not given here. pTerphenylCO(4''-OnC5H11) = CCCCCOc1ccc(-c2ccc(-c3ccc(C(=O)*)cc3)cc2)cc1; ξOrn(4ξ-OH) = O=C(C(CC(O)CN[*:3])N[*:1])[*:2]; ξhTyr(βOH) = NC(C(=O)O)C(O)Cc1ccc(O)cc1; ξPro(3ξ-OH,4ξ-Me) = CC1CNC(C(=O)O)C1O; ξHyp = O=C(O)C1CC(O)CN1

System: C. albicans
Assay type: cell-based
Procedure: Antifungal activity of a test compound is determined in vitro by obtaining the minimum inhibitory concentration (MIC) of the compound using a standard agar dilution test or a disc-diffusion test. The compound is then tested in vivo (in mice) to determine the effective dose of the test compound for controlling a systemic fungal infection. Accordingly, the compound prepared in Example 1C was tested for antifungal activity against C. albicans.

## CCCCCOc1ccc(-c2ccc(-c3ccc(C(=O)NC4CC(O)CNC(=O)C5C(O)C(C)CN5C(=O)CNC(=O)C(C(O)Cc5ccc(O)cc5)NC(=O)C5CC(O)CN5C(=O)CNC4=O)cc3)cc2)cc1 (stereo not shown) [Example 1C] ({pTerphenylCO(4''-OnC5H11)}-[ξOrn(4ξ-OH)]G[ξHyp][ξhTyr(βOH)]G[ξPro(3ξ-OH,4ξ-Me)]; lactam 1-C)
  minimal inhibitory concentration (MIC) against C. albicans: 0.312 µg/mL (≈ 0.306 µM)
